Laboratory results published in US20030032774A1, “Novel opioid peptides for the treatment of pain” (priority 1994, published 2003).
Where two headings read alike, the source gives them in different places. Square brackets hold non-standard residues; d marks the D form. Peptide text beside a SMILES is read from it. Phe(4-NO2) = N[C@@H](Cc1ccc([N+](=O)[O-])cc1)C(=O)O; Phe(4-F) = N[C@@H](Cc1ccc(F)cc1)C(=O)O; 1Nal = N[C@@H](Cc1cccc2ccccc12)C(=O)O; Dmt = Cc1cc(O)cc(C)c1C[C@H](N)C(=O)O; dNva = CCC[C@@H](N)C(=O)O

Experiments:
[1] = target: T1, μ receptor (Rattus norvegicus, UniProt P33535); assay: Radioligand binding assay, μ opioid receptor ((3H)-DAMGO, brain membranes); settings: for Binding Assay Kiδ Kiμ: selectivity ratio
T1 construct: the brains (minus the cerebellum) were removed, placed in ice-cold saline solution, and then homogenized; from tissue; host or cells: rat brain (minus cerebellum) membranes
Procedure: (§1) PBQ (phenyl-ρ-benzoquinone) induced writhing in mice is an assessment of both central and peripheral analgesia (see Sigmund, et al., Proc. Soc. Exp. Biol. Med. 95:729 (1957)). Central analgesia is determined by the inhibition of a hot-plate response in mice (see, Wolfe, et al., J. Pharmacol. Exp. Ther. 80:300 (1944)). Assays measuring opioid receptor binding affinities for μ and δ receptors as well as the GPI assay were determined through experimental protocol set out in Schiller et al. (Biophys. Res. Commun. 85:1322 (1975)). The references by Sigmund, et al., Wolfe, et al., and Schiller, et al. are each hereby incorporated by reference.
(§2) Male Sprague-Dawley rats weighing between 350-450 g were sacrificed by inhalation of CO2. The rats were decapitated and the brains (minus the cerebellum) were removed, placed in ice-cold saline solution, and then homogenized in ice-cold 50 mM Tris buffer pH 7.4 (10 ml/brain). Membranes were centrifuged at 14000 rpm for 30 min. at 4° C. The pellets were re-suspended in approximately 6 ml/brain of ice-cold Tris buffer 50 mM pH 7.4 and stored at −78° C. until ready for use. Protein quantification of the brain homogenate was conducted according to protein assay kit purchased (Bio-Rad).
(§3) (^3H)-DAMGO and (^3H)-DAGLE were used as radioligands for the μ and δ receptors, respectively. Radioligand 50 μl, membranes 100 μl, and serially diluted test compound were incubated for 1 hr at 22° C. Nonspecific binding was determined using a 500 fold excess of unlabeled ligand in the presence of tracer and membranes. Free ligand was separated from bound by filtration through Whatman GF/B paper (presoaked in polyethylenimine 1% aqueous solution) and rinsing with ice-cold 50 mM Tris pH 7.4 using a Brandel cell harvester. The filters were dried and radioactivity was counted in a 24 well microplate in the presence of 500 μl scintillant per well. Radioactivity was measured using a Wallace 1450 Microbeta counter. Ki's for the various compounds were determined from the IC50 according to the Cheng and Prusoff equation.

[2] = system: PBQ induced writhing in mice; assay: PBQ (phenylquinone)-induced writhing assay; assay type: in vivo, mouse; settings: for Writhing ED50: Table 2, mouse; for ED50(PBQ): mouse s.c., 20 min post administration
Procedure: The test was performed on CD #1 male mice weighing between 18 and 22 g. Mice were weighed, marked and then injected, by the intraperitoneal route, with 0.3 ml/20 g by weight of a solution of phenylquinone at 0.02%. The contortions which appeared during a 15 minute time period following the injection were counted. The phenylquinone was injected at time intervals of 5, 20 or 60 minutes after administration of the compound (or medium, or standard) by subcutaneous route. It was injected at time intervals of 60 minutes after the administration of the compound (or medium, or standard) by oral route;
The 0.02% phenylquinone solution was prepared as follows: 20 mg of phenylquinone was dissolved in 5 ml ethanol 90% (Sigma). The dissolved phenylquinone was slowly added to 95 ml of distilled water continuously shaken and preheated (not boiled). The phenylquinone solution was, at all times protected from light and a new solution was prepared every day for the test. Each group usually contained 10 mice. If an antagonist, such as naloxone, was used, it was administered 20 minutes before the compound (or the medium, or the standard) by the intraperitoneal route.
Writhing assays were performed on CD#1 male mice weighing between […]. Assays were carried out as described in Example 3 and results are summarized below in Table 2.

[3] = target: δ receptor (Rattus norvegicus, UniProt P33533); assay: biochemical
Procedure: as §1, §2, §3

[4] = system: mice; assay: Lethal effects / safety in mice; settings: 1-5 mg kg−1 i.v. bolus dose
[5] = target: μ receptors (Cavia porcellus, UniProt P97266); assay: Guinea Pig Ileum (GPI) assay, longitudinal muscle preparation
Procedure: The activity of the peptide compounds on μ receptors was determined using the Guinea Pig Ileum (GPI) assay (longitudinal muscle preparation) according to the procedures described in Schiller et al., Biophys. Res. Commun. 85:1322 (1975).

[6] = system: hot-plate response in mice; settings: in vivo; for Hot Plate: sc; for central analgesic effect in the mouse hot plate test: 100 mg/kg

Sequence of δ receptor (P33533 whole entry): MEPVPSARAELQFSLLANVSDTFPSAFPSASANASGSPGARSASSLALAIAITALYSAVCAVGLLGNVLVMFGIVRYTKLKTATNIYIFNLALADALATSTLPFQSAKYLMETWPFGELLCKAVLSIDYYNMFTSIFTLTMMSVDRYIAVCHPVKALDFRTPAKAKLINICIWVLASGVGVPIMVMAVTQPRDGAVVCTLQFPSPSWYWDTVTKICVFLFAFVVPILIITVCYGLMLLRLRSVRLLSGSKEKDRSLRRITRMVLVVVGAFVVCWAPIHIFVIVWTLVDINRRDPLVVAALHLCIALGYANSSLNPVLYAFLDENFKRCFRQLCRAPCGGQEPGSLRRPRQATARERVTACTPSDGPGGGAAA
T1 sequence (P33535 whole entry): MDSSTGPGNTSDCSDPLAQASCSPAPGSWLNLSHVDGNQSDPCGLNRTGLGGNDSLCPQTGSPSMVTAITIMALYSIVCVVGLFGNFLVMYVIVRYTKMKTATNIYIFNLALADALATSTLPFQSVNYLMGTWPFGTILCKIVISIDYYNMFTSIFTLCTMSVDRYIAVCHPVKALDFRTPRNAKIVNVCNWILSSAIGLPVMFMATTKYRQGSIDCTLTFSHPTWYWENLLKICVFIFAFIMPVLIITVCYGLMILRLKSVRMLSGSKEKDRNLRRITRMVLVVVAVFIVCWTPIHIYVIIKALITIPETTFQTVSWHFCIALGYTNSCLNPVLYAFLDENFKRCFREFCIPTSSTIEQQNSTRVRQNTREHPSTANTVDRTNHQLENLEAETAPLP
Sequence of μ receptors (P97266 whole entry, looked up): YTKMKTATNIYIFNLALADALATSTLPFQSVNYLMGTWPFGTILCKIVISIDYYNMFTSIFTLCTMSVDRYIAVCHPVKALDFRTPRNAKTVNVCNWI

## C[C@@H](NC(=O)[C@@H](N)Cc1ccc(O)cc1)C(=O)N[C@@H](Cc1ccccc1)C(=O)N[C@@H](Cc1ccccc1)C(N)=O [BCH1774, H-Tyr-D-Ala-Phe-Phe-NH2] (H-Y[dA]FF-NH2)
[1]; Table 1, read-out: Ki^μ
  Ki: 1.53 nM
[1]; Table 2, read-out: Binding Assay Kiμ
  Ki: 1.53 nM
[1]; Table 2
  Binding Assay Kiδ Kiμ: 409
[2]; 20 mg/kg s.c. BCH1774 vs 30 mg/kg s.c. BCH2463, FIG. 3
  duration of analgesic effect in writhing assay: lasted longer than for BCH2463
[2]
  Writhing ED50: 1.4 mg/kg
  ED50(PBQ): 1.4 mg/kg
[3]; read-out: Binding Assay Kiδ, Table 2
  Ki: 626 nM
[4]
  lethal effects upon mice: exhibited lethal effects
[5]
  IC50: 3 nM
[6]; mouse
  Hot Plate: >100 mg/kg

## C[C@@H](NC(=O)[C@@H](N)Cc1ccc(O)cc1)C(=O)N[C@@H](Cc1ccccc1)C(=O)N[C@@H](Cc1ccc([N+](=O)[O-])cc1)C(N)=O [BCH1776, H-Tyr-D-Ala-Phe-Phe(4-NO2)—NH2] (H-Y[dA]F[Phe(4-NO2)]-NH2)
[1]; Ki^μ, Table 1
  Ki: 0.509 nM
[2]
  ED50(PBQ): 4 mg/kg
[5]; GPI(IC50), Table 1
  IC50: 8 nM

## C[C@@H](NC(=O)[C@@H](N)Cc1ccc(O)cc1)C(=O)N[C@@H](Cc1ccc([N+](=O)[O-])cc1)C(=O)N[C@@H](Cc1ccc([N+](=O)[O-])cc1)C(N)=O [BCH1777, H-Tyr-D-Ala-Phe(4-NO2)-Phe(4-NO2)—NH2] (H-Y[dA][Phe(4-NO2)][Phe(4-NO2)]-NH2)
[1]; Ki^μ, Table 1
  Ki: 0.826 nM
[2]
  ED50(PBQ): >20 mg/kg
[5]; GPI(IC50), Table 1
  IC50: 6 nM

## C[C@@H](NC(=O)[C@@H](N)Cc1ccc(O)cc1)C(=O)N[C@@H](Cc1ccccc1)C(=O)N[C@@H](Cc1cccc2ccccc12)C(N)=O [BCH1782, H-Tyr-D-Ala-Phe-1′-Nal-NH2] (H-Y[dA]F[1Nal]-NH2)
[1]; Ki^μ, Table 1
  Ki: 0.981 nM
[2]
  ED50(PBQ): >20 mg/kg
[5]; GPI(IC50), Table 1
  IC50: 2 nM

## C[C@@H](NC(=O)[C@@H](N)Cc1ccc(O)cc1)C(=O)N[C@@H](Cc1c[nH]c2ccccc12)C(=O)N[C@@H](Cc1ccccc1)C(N)=O [BCH1784, H-Tyr-D-Ala-Trp-Phe-NH2] (H-Y[dA]WF-NH2)
[1]; Ki^μ, Table 1
  Ki: 3.57 nM
[2]
  ED50(PBQ): >20 mg/kg
[5]; GPI(IC50), Table 1
  IC50: 20 nM

## C[C@@H](NC(=O)[C@@H](N)Cc1ccc(O)cc1)C(=O)N[C@@H](Cc1ccccc1)C(=O)N[C@@H](Cc1c[nH]c2ccccc12)C(N)=O [BCH1785, H-Tyr-D-Ala-Phe-Trp-NH2] (H-Y[dA]FW-NH2)
[1]; Ki^μ, Table 1
  Ki: 2.21 nM
[2]
  ED50(PBQ): >20 mg/kg
[5]; GPI(IC50), Table 1
  IC50: 16 nM

## CCC[C@@H](NC(=O)[C@@H](N)Cc1ccc(O)cc1)C(=O)N[C@@H](Cc1ccccc1)C(=O)N[C@@H](Cc1ccccc1)C(N)=O [BCH2462, H-Tyr-D-Nva-Phe-Phe-NH2] (H-Y[dNva]FF-NH2)
[2]
  ED50(PBQ): 2.7 mg/kg
[4]
  lethal effects upon mice: exhibited lethal effects
[6]
  central analgesic effect in the mouse hot plate test: No central analgesic effect was observed
[6]; mouse
  reaction time in the hot plate test: approximately 8 seconds
  Hot Plate: >100 mg/kg

## N=C(N)NCCC[C@@H](NC(=O)[C@@H](N)Cc1ccc(O)cc1)C(=O)N[C@@H](Cc1ccccc1)C(=O)N[C@@H](Cc1ccccc1)C(N)=O [BCH2687, H-Tyr-D-Arg-Phe-Phe-NH2] (H-Y[dR]FF-NH2)
[2]
  Writhing ED50: 0.5 mg/kg
[6]
  central analgesic effect in the mouse hot plate test: No central analgesic effect was observed
[6]; mouse
  reaction time in the hot plate test: approximately 8 seconds
  Hot Plate: >100 mg/kg

## NC(=O)[C@H](Cc1ccccc1)NC(=O)[C@H](Cc1ccccc1)NC(=O)[C@@H](CS)NC(=O)[C@@H](N)Cc1ccc(O)cc1 [BCH2690, H-Tyr-D-Cys-Phe-Phe-NH2] (H-Y[dC]FF-NH2)
[2]
  ED50(PBQ): 6.2 mg/kg
[6]; mouse
  Hot Plate: >100 mg/kg

## Cc1cc(O)cc(C)c1C[C@H](N)C(=O)N[C@H](CO)C(=O)N[C@@H](Cc1ccccc1)C(=O)N[C@@H](Cc1ccccc1)C(N)=O [BCH2813, H-Dmt-D-Ser-Phe-Phe-NH2] (H-[Dmt][dS]FF-NH2)
[2]
  ED50(PBQ): 0.15 mg/kg
[6]; mouse
  dose at which found to act centrally in the hot plate test: about 40 mg/kg

## C[C@@H](NC(=O)[C@@H](N)Cc1ccc(O)cc1)C(=O)N[C@@H](Cc1ccc(F)cc1)C(=O)N[C@@H](Cc1ccc(F)cc1)C(N)=O [Compound #1B, H-Tyr-D-Ala-Phe(pF)-Phe(pF)-NH2] (H-Y[dA][Phe(4-F)][Phe(4-F)]-NH2)
[1]; Binding Assay Kiμ, Table 2
  Ki: 0.2 nM
[1]; Table 2
  Binding Assay Kiδ Kiμ: 998
[2]
  Writhing ED50: 0.2 mg/kg
[3]
  Ki: 200 nM
[5]; CPI IC50, Table 2
  IC50: 0.12 nM

## C[C@@H](NC(=O)[C@@H](N)Cc1ccc(O)cc1)C(=O)N[C@@H](Cc1ccc(F)cc1)C(=O)N[C@@H](Cc1ccccc1)C(N)=O [Compound #1C, H-Tyr-D-Ala-Phe(pF)-Phe-NH2] (H-Y[dA][Phe(4-F)]F-NH2)
[1]; Binding Assay Kiμ, Table 2
  Ki: 0.36 nM
[1]; Table 2
  Binding Assay Kiδ Kiμ: 559
[2]
  Writhing ED50: 0.5 mg/kg
[3]
  Ki: 201 nM

## N=C(N)NCCC[C@@H](NC(=O)[C@@H](N)Cc1ccc(O)cc1)C(=O)N[C@@H](Cc1ccc(F)cc1)C(=O)N[C@@H](Cc1ccc(F)cc1)C(N)=O [Compound #2B, H-Tyr-D-Arg-Phe(pF)-Phe(pF)-NH2] (H-Y[dR][Phe(4-F)][Phe(4-F)]-NH2)
[1]; Binding Assay Kiμ, Table 2
  Ki: 0.22 nM
[2]
  Writhing ED50: 0.3 mg/kg
[3]
  Ki: > 1000 nM

## N=C(N)NCCC[C@@H](NC(=O)[C@@H](N)Cc1ccc(O)cc1)C(=O)N[C@@H](Cc1ccc(F)cc1)C(=O)N[C@@H](Cc1ccccc1)C(N)=O [Compound #2C, H-Tyr-D-Arg-Phe(pF)-Phe-NH2] (H-Y[dR][Phe(4-F)]F-NH2)
[1]; Binding Assay Kiμ, Table 2
  Ki: 0.57 nM
[1]; Table 2
  Binding Assay Kiδ Kiμ: 1671
[2]
  Writhing ED50: 0.3 mg/kg
[3]
  Ki: 952 nM
[5]; CPI IC50, Table 2
  IC50: 1.52 nM

## H-Y[dS]FF-NH2 [BCH2463]
[2]
  ED50(PBQ): 0.5 mg/kg
[6]
  central analgesic effect in the mouse hot plate test: No central analgesic effect was observed
[6]; mouse
  reaction time in the hot plate test: about 9 seconds
  Hot Plate: >100 mg/kg
